According to US8192962B2, “Processes for detecting toxic substances” (Daikin Industries, Ltd., priority 2001, dated 2012):

System: Stress protein genes
Assay: DNA chip mRNA expression in yeast, stress protein genes (Table 6)
Assay type: cell-based, Saccharomyces cerevisiae S288C
Method in brief: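 S. cerevisiae S288C grown at 25° C. in YPD to log phase, then exposed 2 h to a toxicant at a growth-inhibiting, non-lethal concentration; untreated cells as control. Poly(A) mRNA reverse-transcribed with Cy3-dUTP or Cy5-dUTP, hybridized >12 h at 65° C. to whole-genome yeast DNA chip; value = fluorescence ratio treated/untreated.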

Na2As [(1)]
The level of expressed mRNA in the presence of chemical substance/The level of expressed mRNA in the absence of chemical substance (yeast gene YAL005C): 0.6 | The level of expressed mRNA in the presence of chemical substance/The level of expressed mRNA in the absence of chemical substance (yeast gene YAL015C): 1.2 | The level of expressed mRNA in the presence of chemical substance/The level of expressed mRNA in the absence of chemical substance (yeast gene YBL075C): 1.3 | The level of expressed mRNA in the presence of chemical substance/The level of expressed mRNA in the absence of chemical substance (yeast gene YBL093C): 1.0 | The level of expressed mRNA in the presence of chemical substance/The level of expressed mRNA in the absence of chemical substance (yeast gene YBR044C): 0.8 | The level of expressed mRNA in the presence of chemical substance/The level of expressed mRNA in the absence of chemical substance (yeast gene YBR054W): 1.9 | The level of expressed mRNA in the presence of chemical substance/The level of expressed mRNA in the absence of chemical substance (yeast gene YBR067C): 1.6 | The level of expressed mRNA in the presence of chemical substance/The level of expressed mRNA in the absence of chemical substance (yeast gene YBR072W): 18.5 | The level of expressed mRNA in the presence of chemical substance/The level of expressed mRNA in the absence of chemical substance (yeast gene YBR126C): 0.8 | The level of expressed mRNA in the presence of chemical substance/The level of expressed mRNA in the absence of chemical substance (yeast gene YBR169C): 1.0 | The level of expressed mRNA in the presence of chemical substance/The level of expressed mRNA in the absence of chemical substance (yeast gene YCL035C): 2.0 | The level of expressed mRNA in the presence of chemical substance/The level of expressed mRNA in the absence of chemical substance (yeast gene YCR021C): 5.2 | The level of expressed mRNA in the presence of chemical substance/The level of expressed mRNA in the absence of chemical substance (yeast gene YCR083W): 1.1 | The level of expressed mRNA in the presence of chemical substance/The level of expressed mRNA in the absence of chemical substance (yeast gene YDL022W): 0.9 | The level of expressed mRNA in the presence of chemical substance/The level of expressed mRNA in the absence of chemical substance (yeast gene YDL025C): 1.7 | The level of expressed mRNA in the presence of chemical substance/The level of expressed mRNA in the absence of chemical substance (yeast gene YDR033W): 1.1 | The level of expressed mRNA in the presence of chemical substance/The level of expressed mRNA in the absence of chemical substance (yeast gene YDR077W): 1.2 | The level of expressed mRNA in the presence of chemical substance/The level of expressed mRNA in the absence of chemical substance (yeast gene YDR098C): 0.8 | The level of expressed mRNA in the presence of chemical substance/The level of expressed mRNA in the absence of chemical substance (yeast gene YDR155C): 1.1 | The level of expressed mRNA in the presence of chemical substance/The level of expressed mRNA in the absence of chemical substance (yeast gene YDR258C): 1.6 | The level of expressed mRNA in the presence of chemical substance/The level of expressed mRNA in the absence of chemical substance (yeast gene YDR293C): 0.9 | The level of expressed mRNA in the presence of chemical substance/The level of expressed mRNA in the absence of chemical substance (yeast gene YDR436W): 0.9 | The level of expressed mRNA in the presence of chemical substance/The level of expressed mRNA in the absence of chemical substance (yeast gene YDR513W): 2.2 | The level of expressed mRNA in the presence of chemical substance/The level of expressed mRNA in the absence of chemical substance (yeast gene YDR519W): 1.3 | The level of expressed mRNA in the presence of chemical substance/The level of expressed mRNA in the absence of chemical substance (yeast gene YEL030W): 0.7 | The level of expressed mRNA in the presence of chemical substance/The level of expressed mRNA in the absence of chemical substance (yeast gene YEL039C): 1.1 | The level of expressed mRNA in the presence of chemical substance/The level of expressed mRNA in the absence of chemical substance (yeast gene YER042W): 3.0 | The level of expressed mRNA in the presence of chemical substance/The level of expressed mRNA in the absence of chemical substance (yeast gene YER057C): 1.2 | The level of expressed mRNA in the presence of chemical substance/The level of expressed mRNA in the absence of chemical substance (yeast gene YER103W): 0.7 | The level of expressed mRNA in the presence of chemical substance/The level of expressed mRNA in the absence of chemical substance (yeast gene YER125W): 0.6 | The level of expressed mRNA in the presence of chemical substance/The level of expressed mRNA in the absence of chemical substance (yeast gene YFL014W): 3.4 | The level of expressed mRNA in the presence of chemical substance/The level of expressed mRNA in the absence of chemical substance (yeast gene YFL016C): 0.8 | The level of expressed mRNA in the presence of chemical substance/The level of expressed mRNA in the absence of chemical substance (yeast gene YFL020C): 1.0 | The level of expressed mRNA in the presence of chemical substance/The level of expressed mRNA in the absence of chemical substance (yeast gene YFR052W): 1.1 | The level of expressed mRNA in the presence of chemical substance/The level of expressed mRNA in the absence of chemical substance (yeast gene YGL073W): 1.0 | The level of expressed mRNA in the presence of chemical substance/The level of expressed mRNA in the absence of chemical substance (yeast gene YGL115W): 0.9 | The level of expressed mRNA in the presence of chemical substance/The level of expressed mRNA in the absence of chemical substance (yeast gene YGL181W): 0.9 | The level of expressed mRNA in the presence of chemical substance/The level of expressed mRNA in the absence of chemical substance (yeast gene YGR088W): 1.3 | The level of expressed mRNA in the presence of chemical substance/The level of expressed mRNA in the absence of chemical substance (yeast gene YHL028W): 0.7 | The level of expressed mRNA in the presence of chemical substance/The level of expressed mRNA in the absence of chemical substance (yeast gene YHL046C): 1.1 | The level of expressed mRNA in the presence of chemical substance/The level of expressed mRNA in the absence of chemical substance (yeast gene YHR030C): 2.1 | The level of expressed mRNA in the presence of chemical substance/The level of expressed mRNA in the absence of chemical substance (yeast gene YHR057C): 1.1 | The level of expressed mRNA in the presence of chemical substance/The level of expressed mRNA in the absence of chemical substance (yeast gene YHR104W): 1.0 | The level of expressed mRNA in the presence of chemical substance/The level of expressed mRNA in the absence of chemical substance (yeast gene YIL011W): 0.7 | The level of expressed mRNA in the presence of chemical substance/The level of expressed mRNA in the absence of chemical substance (yeast gene YIL033C): 0.8 | The level of expressed mRNA in the presence of chemical substance/The level of expressed mRNA in the absence of chemical substance (yeast gene YIR037W): 1.4 | The level of expressed mRNA in the presence of chemical substance/The level of expressed mRNA in the absence of chemical substance (yeast gene YIR038C): 1.3 | The level of expressed mRNA in the presence of chemical substance/The level of expressed mRNA in the absence of chemical substance (yeast gene YJL128C): 0.8 | The level of expressed mRNA in the presence of chemical substance/The level of expressed mRNA in the absence of chemical substance (yeast gene YJL158C): 0.9 | The level of expressed mRNA in the presence of chemical substance/The level of expressed mRNA in the absence of chemical substance (yeast gene YJL159W): 1.0 | The level of expressed mRNA in the presence of chemical substance/The level of expressed mRNA in the absence of chemical substance (yeast gene YJL165C): 1.0 | The level of expressed mRNA in the presence of chemical substance/The level of expressed mRNA in the absence of chemical substance (yeast gene YJR045C): 0.5 | The level of expressed mRNA in the presence of chemical substance/The level of expressed mRNA in the absence of chemical substance (yeast gene YJR090C): 0.8 | The level of expressed mRNA in the presence of chemical substance/The level of expressed mRNA in the absence of chemical substance (yeast gene YKL161C): 4.2 | The level of expressed mRNA in the presence of chemical substance/The level of expressed mRNA in the absence of chemical substance (yeast gene YKL163W): 1.1 | The level of expressed mRNA in the presence of chemical substance/The level of expressed mRNA in the absence of chemical substance (yeast gene YKL164C): 0.6 | The level of expressed mRNA in the presence of chemical substance/The level of expressed mRNA in the absence of chemical substance (yeast gene YKL210W): 0.5 | The level of expressed mRNA in the presence of chemical substance/The level of expressed mRNA in the absence of chemical substance (yeast gene YKR053C): 0.9 | The level of expressed mRNA in the presence of chemical substance/The level of expressed mRNA in the absence of chemical substance (yeast gene YLL024C): 0.5 | The level of expressed mRNA in the presence of chemical substance/The level of expressed mRNA in the absence of chemical substance (yeast gene YLL026W): 1.8 | The level of expressed mRNA in the presence of chemical substance/The level of expressed mRNA in the absence of chemical substance (yeast gene YLL039C): 1.1 | The level of expressed mRNA in the presence of chemical substance/The level of expressed mRNA in the absence of chemical substance (yeast gene YLL060C): 12.5 | The level of expressed mRNA in the presence of chemical substance/The level of expressed mRNA in the absence of chemical substance (yeast gene YLR006C): 0.7 | The level of expressed mRNA in the presence of chemical substance/The level of expressed mRNA in the absence of chemical substance (yeast gene YLR109W): 0.8 | The level of expressed mRNA in the presence of chemical substance/The level of expressed mRNA in the absence of chemical substance (yeast gene YLR259C): 0.7 | The level of expressed mRNA in the presence of chemical substance/The level of expressed mRNA in the absence of chemical substance (yeast gene YML007W): 0.9 | The level of expressed mRNA in the presence of chemical substance/The level of expressed mRNA in the absence of chemical substance (yeast gene YML070W): 0.9 | The level of expressed mRNA in the presence of chemical substance/The level of expressed mRNA in the absence of chemical substance (yeast gene YMR021C): 1.0 | The level of expressed mRNA in the presence of chemical substance/The level of expressed mRNA in the absence of chemical substance (yeast gene YMR173W): 1.5 | The level of expressed mRNA in the presence of chemical substance/The level of expressed mRNA in the absence of chemical substance (yeast gene YMR186W): 0.6 | The level of expressed mRNA in the presence of chemical substance/The level of expressed mRNA in the absence of chemical substance (yeast gene YNL064C): 0.9 | The level of expressed mRNA in the presence of chemical substance/The level of expressed mRNA in the absence of chemical substance (yeast gene YNL160W): 2.1 | The level of expressed mRNA in the presence of chemical substance/The level of expressed mRNA in the absence of chemical substance (yeast gene YNL241C): 1.3 | The level of expressed mRNA in the presence of chemical substance/The level of expressed mRNA in the absence of chemical substance (yeast gene YNR076W): 1.3 | The level of expressed mRNA in the presence of chemical substance/The level of expressed mRNA in the absence of chemical substance (yeast gene YOL064C): 1.4 | The level of expressed mRNA in the presence of chemical substance/The level of expressed mRNA in the absence of chemical substance (yeast gene YOL161C): 1.2 | The level of expressed mRNA in the presence of chemical substance/The level of expressed mRNA in the absence of chemical substance (yeast gene YOR008C): 0.7 | The level of expressed mRNA in the presence of chemical substance/The level of expressed mRNA in the absence of chemical substance (yeast gene YOR009W): 0.9 | The level of expressed mRNA in the presence of chemical substance/The level of expressed mRNA in the absence of chemical substance (yeast gene YOR010C): 0.7 | The level of expressed mRNA in the presence of chemical substance/The level of expressed mRNA in the absence of chemical substance (yeast gene YOR027W): 0.7 | The level of expressed mRNA in the presence of chemical substance/The level of expressed mRNA in the absence of chemical substance (yeast gene YOR208W): 1.3 | The level of expressed mRNA in the presence of chemical substance/The level of expressed mRNA in the absence of chemical substance (yeast gene YPL059W): 1.2 | The level of expressed mRNA in the presence of chemical substance/The level of expressed mRNA in the absence of chemical substance (yeast gene YPL106C): 0.6 | The level of expressed mRNA in the presence of chemical substance/The level of expressed mRNA in the absence of chemical substance (yeast gene YPL140C): 0.9 | The level of expressed mRNA in the presence of chemical substance/The level of expressed mRNA in the absence of chemical substance (yeast gene YPL194W): 0.9 | The level of expressed mRNA in the presence of chemical substance/The level of expressed mRNA in the absence of chemical substance (yeast gene YPL223C): 4.8 | The level of expressed mRNA in the presence of chemical substance/The level of expressed mRNA in the absence of chemical substance (yeast gene YPL240C): 0.7 | The level of expressed mRNA in the presence of chemical substance/The level of expressed mRNA in the absence of chemical substance (yeast gene YPR005C): 1.3 | The level of expressed mRNA in the presence of chemical substance/The level of expressed mRNA in the absence of chemical substance (yeast gene YPR026W): 0.9
